# Assay results reported in patent publication US20170305943A1, “COMPOUNDS FOR THE TREATMENT OF BACTERIAL INFECTIONS” (priority 2014, published 2017).
# System: Clostridium difficile (Isolate ID ATCC 9689)
# Assay: Bacterial Assay: Determination of Antibacterial Activity (MIC, broth microdilution or agar dilution)
# Type: cell-based
# Settings: Clostridioides difficile, ATCC9689, 48 h, read-out: C. difficile MIC Activity Range
# Method: Bacterial Assay: Determination of Antibacterial Activity Compounds of the invention were tested for antimicrobial activity by susceptibility testing in liquid or on solid media. Minimum inhibitory concentrations (MICs) for compounds against each strain were determined by the broth microdilution or agar dilution method according to the guidelines of the Clinical Laboratories and Standards Institute, formerly the National Committee for Clinical Laboratory Standards (Clinical Laboratories and Standards Institute. Methods for Dilution Antimicrobial Susceptibility Tests for Bacteria That Grow Anaerobically; Approved Standard-Seventh Edition. Document M11-A7, CLSI, Wayne, Pa., 2007, Clinical Laboratories and Standards Institute). Briefly MICs were determined by visible inspection after 48 hours of growth in the presence of compounds, cultures were grown at 37° C. in anaerobic gas packs using reinforced clostridial medium supplemented with 0.1% defribrinated horse blood. The bacterial strains tested include C. difficile (Clostridium difficile (Isolate ID ATCC 9689)) (Table 2) and two drug resistant clinical isolates (Clostridium difficile (Isolate ID BI-9) and Clostridium difficile (Isolate ID 027-01) (Table 3).
# MICs were determined to be within the activity ranges “A” activity≦1.01 μg/mL; “B” activity>1.0 μg/mL-4.0 μg/mL; “C” activity>4.0 μg/mL-16 μg/mL
row,Structure (SMILES),MIC [µg/mL]
1,"CC(C)(C)OC(=O)NCCNC(=O)OCC(Oc1ccc(F)c(C(N)=O)c1F)c1nc(-c2ccc(C(F)(F)F)cc2)c(Br)o1 (stereo not shown) [Compound 55, 2-{5-bromo-4-[4-(trifluoromethyl)phenyl]-1,3-oxazol-2-yl}-2-(3-carbamoyl-2,4-difluorophenoxy)ethyl tert-butyl ethane-1,2-diylbiscarbamate]",1 to 4
2,"Cn1ccnc1CNC(=O)OCC(Oc1ccc(F)c(C(N)=O)c1F)c1nc(-c2ccc(C(F)(F)F)cc2)c(Br)o1 (stereo not shown) [Compound 79, 2-{5-bromo-4-[4-(trifluoromethyl)phenyl]-1,3-oxazol-2-yl}-2-(3-carbamoyl-2,4-difluorophenoxy)ethyl [(1-methyl-1H-imidazol-2-yl)methyl]carbamate]",4 to 16
3,"NC(=O)c1c(F)ccc(OC(COC(=O)CN2C(=O)c3ccccc3C2=O)c2nc(-c3ccc(C(F)(F)F)cc3)c(Br)o2)c1F (stereo not shown) [Compound 38, 2-{5-bromo-4-[4-(trifluoromethyl)phenyl]-1,3-oxazol-2-yl}-2-(3-carbamoyl-2,4-difluorophenoxy)ethyl (1,3-dioxo-1,3-dihydro-2H-isoindo1-2-yl)acetate]",< 1.01
4,"NC(=O)c1c(F)ccc(OCCCCOc2ccccc2Cl)c1F [Compound 139, 3-[4-(2-chlorophenoxy)butoxy]-2,6-difluorobenzamide]",4 to 16
5,"NC(=O)c1c(F)ccc(OC(COC(=O)NCc2ccccn2)c2nc(-c3ccc(C(F)(F)F)cc3)c(Br)o2)c1F (stereo not shown) [Compound 61, 2-{5-bromo-4-[4-(trifluoromethyl)phenyl]-1,3-oxazol-2-yl}-2-(3-carbamoyl-2,4-difluorophenoxy)ethyl (pyridin-2-ylmethyl)carbamate]",1 to 4
6,"NC(=O)c1c(F)ccc(OCCCCOc2cccc(Br)c2)c1F [Compound 172, 3-[4-(3-bromophenoxy)butoxy]-2,6-difluorobenzamide]",1 to 4
7,"CN(C)CC(=O)OCC(Oc1ccc(F)c(C(N)=O)c1F)c1nc(-c2ccc(C(F)(F)F)cc2)c(Br)o1 (stereo not shown) [Compound 36, 2-{5-bromo-4-[4-(trifluoromethyl)phenyl]-1,3-oxazol-2-yl}-2-(3-carbamoyl-2,4-difluorophenoxy)ethyl N,N-dimethylglycinate]",< 1.01
8,"NC(=O)c1c(F)ccc(OCCCCOc2cccc(F)c2)c1F [Compound 167, 2,6-difluoro-3-[4-(3-fluorophenoxy)butoxy] benzamide]",1 to 4
9,"CC(=O)OCC(Oc1ccc(F)c(C(N)=O)c1F)c1nc(-c2ccc(C(F)(F)F)cc2)c(Br)o1 (stereo not shown) [Compound 31, 2-{5-bromo-4-[4-(trifluoromethyl)phenyl]-1,3-oxazol-2-yl}-2-(3-carbamoyl-2,4-difluorophenoxy)ethyl acetate]",< 1.01
10,"NC(=O)c1c(F)ccc(OCCCCOc2ccc(Cl)cn2)c1F [Compound 143, 3-{4-[(5-chloropyridin-2-yl)oxy]butoxy}-2,6-difluorobenzamide]",< 1.01
11,"CSc1oc(C(CO)Oc2ccc(F)c(C(N)=O)c2F)nc1-c1ccc(C(F)(F)F)cc1 (stereo not shown) [Compound 69, 2,6-difluoro-3-(2-hydroxy-1-{5-(methylthio)-4-[4-(trifluoromethyl)phenyl]-1,3-oxazol-2-yl}ethoxy)benzamide]",< 1.01
12,"NC(=O)c1c(F)ccc(OCCCCOc2ccc(F)cc2F)c1F [Compound 162, 3-[4-(2,4-difluorophenoxy)butoxy]-2,6-difluorobenzamide]",1 to 4
13,"CCCCCCCCCOc1ccc(F)c(C(N)=O)c1Cl [Compound 5, 2-chloro-6-fluoro-3-(nonyloxy)benzamide]",< 1.01
14,"N#Cc1ccc(OCCCCOc2ccc(F)c(C(N)=O)c2F)cc1 [Compound 177, 3-[4-(4-cyanophenoxy)butoxy]-2,6-difluorobenzamide]",1 to 4
15,"Cn1c(CNC(=O)OCC(Oc2ccc(F)c(C(N)=O)c2F)c2nc(-c3ccc(C(F)(F)F)cc3)c(Br)o2)nc2ccccc21 (stereo not shown) [Compound 85, 2-{5-bromo-4-[4-(trifluoromethyl)phenyl]-1,3-oxazol-2-yl}-2-(3-carbamoyl-2,4-difluorophenoxy)ethyl [(1-methyl-1H-benzimidazol-2-yl)methyl]carbamate]",1 to 4
16,"NC(=O)c1c(F)ccc(N(CCCCOc2ccc(OC(F)(F)F)cc2)CC(=O)O)c1F [Compound 187, N-(3-carbamoyl-2,4-difluorophenyl)-N-{4-[4-(trifluoromethoxy)phenoxy]butyl}glycine]",4 to 16
17,"NC(=O)c1c(F)ccc(OCc2nc(CCc3cccc(Cl)c3)cs2)c1F [Compound 199, 3-({4-[2-(3-chlorophenyl)ethyl]-1,3-thiazol-2-yl}methoxy)-2,6-difluorobenzamide]",< 1.01

row,Structure (SMILES),MIC [µg/mL]
1,"NC(=O)c1c(F)ccc(OCCCCOc2ccc(F)cc2)c1F [Compound 168, 2,6-difluoro-3-[4-(4-fluorophenoxy)butoxy] benzamide]",1 to 4
2,"NC(=O)c1c(F)ccc(OCCCCNc2ccc(Cl)cc2)c1F [Compound 142, 3-{4-[(4-chlorophenyl)amino]butoxy}-2,6-difluorobenzamide]",1 to 4
3,"NC(=O)c1c(F)ccc(OC(CO)c2nc(-c3ccc(Br)s3)c(Br)o2)c1F (stereo not shown) [Compound 100, 3-{1-[5-bromo-4-(5-bromothiophen-2-yl)-1,3-oxazol-2-yl]-2-hydroxyethoxy}-2,6-difluorobenzamide]",1 to 4
4,"NC(=O)c1c(F)ccc(OC(CNC(=O)OCc2ccccc2)c2nc(-c3ccc(C(F)(F)F)cc3)c(Br)o2)c1F (racemic) [Compound 93, benzyl [2-{5-bromo-4-[4-(trifluoromethyl)phenyl]-1,3-oxazol-2-yl}-2-(3-carbamoyl-2,4-difluorophenoxy)ethyl]carbamate]",1 to 4
5,"NC(=O)c1c(F)ccc(OCCCCOc2cccc(OC(F)(F)F)c2)c1F [Compound 166, 2,6-difluoro-3-{4-[3-(trifluoromethoxy)phenoxy]butoxy} benzamide]",< 1.01
6,"NC(=O)c1c(F)ccc(OC(CCC(O)CO)c2nc(-c3ccc(C(F)(F)F)cc3)c(Br)o2)c1F (stereo not shown) [Compound 53, 3-[(1-{5-bromo-4-[4-(trifluoromethyl)phenyl]-1,3-oxazol-2-yl}-4,5-dihydroxypentyl)oxy]-2,6-difluorobenzamide]",1 to 4
7,"NC(=O)c1c(F)ccc(OC(CNC(=O)c2cccnc2)c2nc(-c3ccc(C(F)(F)F)cc3)c(Br)o2)c1F (racemic) [Compound 97, N-[2-{5-bromo-4-[4-(trifluoromethyl)phenyl]-1,3-oxazol-2-yl}-2-(3-carbamoyl-2,4-difluorophenoxy)ethyl]pyridine-3-carboxamide]",1 to 4
8,"NC(=O)c1c(F)ccc(OC(COC(=O)NCc2ccncc2)c2nc(-c3ccc(C(F)(F)F)cc3)c(Br)o2)c1F (stereo not shown) [Compound 63, 2-{5-bromo-4-[4-(trifluoromethyl)phenyl]-1,3-oxazol-2-yl}-2-(3-carbamoyl-2,4-difluorophenoxy)ethyl (pyridin-4-ylmethyl)carbamate]",< 1.01
9,"NC(=O)c1c(F)ccc(OCCCCOc2cccc(S(F)(F)(F)(F)F)c2)c1F [Compound 174, 2,6-difluoro-3-{4-[3-(pentafluoro-lambda~6~- sulfanyl)phenoxy]butoxy}benzamide]",< 1.01
10,"Cc1cnccc1CNC(=O)OCC(Oc1ccc(F)c(C(N)=O)c1F)c1nc(-c2ccc(C(F)(F)F)cc2)c(Br)o1 (stereo not shown) [Compound 91, 2-{5-bromo-4-[4-(trifluoromethyl)phenyl]1,3-oxazol-2-yl}-2-(3-carbamoyl-2,4-difluorophenoxy)ethyl [(3-methylpyridin-4-yl)methyl]carbamate]",< 1.01
11,"NC(=O)c1c(F)ccc(OCc2nc(-c3ccc(S(F)(F)(F)(F)F)cc3)co2)c1F [Compound 121, 2,6-difluoro-3-({4-[4-(pentafluoro-lambda~6~- sulfanyl)phenyl]-1,3-oxazol-2-yl}methoxy)benzamide]",1 to 4
12,"NC(=O)c1c(F)ccc(OCCCCOc2ccccc2)c1F [Compound 151, 2,6-difluoro-3-(4-phenoxybutoxy)benzamide]",1 to 4
13,"NC(=O)c1c(F)ccc(OCc2cnn(-c3ccc(Cl)cc3)n2)c1F [Compound 202, 3-{[2-(4-chlorophenyl)-2H-1,2,3-triazol-4-yl]methoxy}-2,6-difluorobenzamide]",1 to 4
14,"NC(=O)c1c(F)ccc(OCc2nc(-c3ccc(Cl)cc3)no2)c1F [Compound 13, 3-{[3-(4-chlorophenyl)-1,2,4-oxadiazol-5-yl]methoxy}-2,6-difluorobenzamide]",1 to 4
15,"N/C(=N\O)c1c(F)ccc(OCCCCOc2ccc(C(F)(F)F)cn2)c1F [Compound 178, 2,6-difluoro-N′-hydroxy-3-(4-{[5-(trifluoromethyl)pyridin-2-yl]oxy}butoxy)benzenecarboximidamide]",4 to 16
16,"CNCNC(=O)c1c(F)ccc(OC(C)c2nc(-c3ccc(OC(F)(F)F)cc3)c(Cl)o2)c1F (stereo not shown) [Compound 35, 3-(1-{5-chloro-4-[4-(trifluoromethoxy)phenyl]-1,3-oxazol-2-yl}ethoxy)-2,6-difluoro-N-[(methylamino)methyl]benzamide]",< 1.01
17,"NC(=O)c1c(F)ccc(OCCCCOc2cccc(C(F)(F)F)c2)c1F [Compound 165, 2,6-difluoro-3-{4-[3-(trifluoromethyl)phenoxy]butoxy}benzamide]",1 to 4
